Data on twelve molecules can be found in patent publication US10392404B2, “Compounds and compositions as kinase inhibitors” (NOVARTIS AG, priority 2014, dated 2019).

Each structure is given as a SMILES string. pIC50: −log10 of the molar value.

The pIC50 is the IC50 on a negative log10 scale, so that one unit is a factor of ten.

Test [1] has as its target T1, C-RAF (Homo sapiens, UniProt P04049, Y340E/Y341E).
T1 construct: His tag (implied by nickel chromatography) (cleaved yes); StrepII tag (cleaved yes); made in house; host or cells: Sf9 insect cells (baculovirus), CRAF and h14-3-3 zeta co-expressed; MEK1 substrate from E. coli
The experiment in a line: In vitro Raf activity determination (Alpha Screen, biotinylated kinase-dead MEK1 substrate), C-Raf. It counts as biochemical. To be noted: c-Raf approximately 4 nM; ATP 1 μM; pre-incubation 60 minutes; reaction 1 hour at room temperature. The gist of the method:
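Full-length C-Raf carrying Y340E/Y341E, co-expressed with 14-3-3ζ in Sf9 cells, at approximately 4 nM, with approximately 10 nM biotinylated kinase-dead MEK1 (K97R) and 1 μM ATP, pH 7.5. Compound preincubated 60 min, reaction 1 hour at room temperature. Phospho-MEK read by AlphaScreen; IC50 by non-linear regression.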

The target in test [2] is T2, b-Raf (V600E) (Homo sapiens, UniProt P15056, V600E).
T2 construct: made in house
The experiment in a line: In vitro Raf activity determination (Alpha Screen, biotinylated kinase-dead MEK1 substrate), B-Raf. The class given is biochemical. The settings on record: b-Raf (V600E) approximately 4 pM; ATP 10 μM; pre-incubation 60 minutes; reaction 3 hours at room temperature. The method in brief:
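Activated b-Raf(V600E) (~4 pM) pre-incubated 60 min with compound and biotinylated kinase-dead (K97R) MEK1 (~10 nM), then reacted 3 h at room temperature with 10 μM ATP in 50 mM Tris pH 7.5, 15 mM MgCl2, 0.01% BSA, 1 mM DTT. Phospho-MEK detected by AlphaScreen; IC50 by non-linear regression.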

T2 sequence (P15056 whole entry V600E): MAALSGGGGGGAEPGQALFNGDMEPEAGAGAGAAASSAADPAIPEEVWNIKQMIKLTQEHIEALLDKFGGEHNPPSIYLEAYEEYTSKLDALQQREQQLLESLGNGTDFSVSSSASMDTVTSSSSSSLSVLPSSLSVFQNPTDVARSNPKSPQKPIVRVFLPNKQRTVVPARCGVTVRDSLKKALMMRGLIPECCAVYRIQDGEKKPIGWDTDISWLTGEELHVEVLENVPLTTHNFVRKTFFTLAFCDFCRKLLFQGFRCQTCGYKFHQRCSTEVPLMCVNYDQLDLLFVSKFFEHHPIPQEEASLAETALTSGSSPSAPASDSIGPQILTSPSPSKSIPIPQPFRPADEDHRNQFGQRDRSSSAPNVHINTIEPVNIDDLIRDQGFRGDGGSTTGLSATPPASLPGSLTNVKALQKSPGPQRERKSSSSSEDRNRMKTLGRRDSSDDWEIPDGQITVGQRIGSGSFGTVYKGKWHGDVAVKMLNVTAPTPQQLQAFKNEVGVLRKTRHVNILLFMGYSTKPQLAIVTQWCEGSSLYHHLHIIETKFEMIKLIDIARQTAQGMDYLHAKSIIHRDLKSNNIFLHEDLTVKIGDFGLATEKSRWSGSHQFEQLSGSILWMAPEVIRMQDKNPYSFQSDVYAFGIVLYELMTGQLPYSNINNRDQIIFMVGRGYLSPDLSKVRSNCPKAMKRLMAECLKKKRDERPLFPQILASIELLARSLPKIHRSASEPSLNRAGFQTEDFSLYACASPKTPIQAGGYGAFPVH
T1 sequence (P04049 whole entry Y340E/Y341E): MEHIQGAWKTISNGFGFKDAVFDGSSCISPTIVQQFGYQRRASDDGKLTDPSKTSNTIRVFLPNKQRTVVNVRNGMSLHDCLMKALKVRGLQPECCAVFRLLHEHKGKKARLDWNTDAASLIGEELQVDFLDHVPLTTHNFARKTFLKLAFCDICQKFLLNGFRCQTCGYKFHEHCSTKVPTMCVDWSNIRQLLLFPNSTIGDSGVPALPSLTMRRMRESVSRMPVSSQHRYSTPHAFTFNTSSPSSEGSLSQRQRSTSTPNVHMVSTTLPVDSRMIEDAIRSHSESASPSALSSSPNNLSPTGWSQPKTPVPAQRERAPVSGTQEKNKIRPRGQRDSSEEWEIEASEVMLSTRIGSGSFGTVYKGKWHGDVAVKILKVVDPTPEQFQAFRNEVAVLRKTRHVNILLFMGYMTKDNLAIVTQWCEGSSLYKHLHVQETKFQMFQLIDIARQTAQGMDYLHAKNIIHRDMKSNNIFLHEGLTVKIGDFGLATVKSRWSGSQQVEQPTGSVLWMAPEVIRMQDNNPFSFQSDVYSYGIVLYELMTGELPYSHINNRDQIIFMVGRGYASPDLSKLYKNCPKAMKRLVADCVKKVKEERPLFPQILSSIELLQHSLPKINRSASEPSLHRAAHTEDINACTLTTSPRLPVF
T1 sequence (P63104 whole entry partner): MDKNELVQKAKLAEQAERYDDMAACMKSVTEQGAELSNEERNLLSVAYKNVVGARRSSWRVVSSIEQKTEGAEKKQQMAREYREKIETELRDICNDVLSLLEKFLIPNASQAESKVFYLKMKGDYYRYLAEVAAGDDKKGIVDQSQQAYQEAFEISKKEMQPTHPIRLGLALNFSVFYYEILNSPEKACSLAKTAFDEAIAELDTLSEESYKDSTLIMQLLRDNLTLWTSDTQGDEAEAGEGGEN

Consider `Cc1ncc(NC(=O)c2ccnc(C(C)(C)C#N)c2)cc1-c1cnc(N2CCOCC2)c(C#N)c1` [Example 64, N-(5′-cyano-2-methyl-6′-morpholino-[3,3′-bipyridin]-5-yl)-2-(2-cyanopropan-2-yl)isonicotinamide], for which the negative-log IC50 (pIC50) is 9.08 in test [1] and 8.43 in test [2].

As for `Cc1ccc(NC(=O)c2ccnc(C(C)(C)O)c2)cc1-c1cnc(N2CCOCC2)c(C#N)c1` [Example 165, N-(3-(5-cyano-6-morpholinopyridin-3-yl)-4-methylphenyl)-2-(2-hydroxypropan-2-yl)isonicotinamide], the negative logarithm of the IC50 (pIC50) in test [1] was 9.45; in test [2], 8.91.

In the case of `Cc1ncc(NC(=O)c2ccnc(C(C)(C)C#N)c2)cc1-c1cnc(NC2CC2)c(C#N)c1` [Example 82, N-(5′-cyano-6′-(cyclopropylamino)-2-methyl-[3,3′-bypyridin]-5-yl)-2-(2-cyanopropan-2-yl)isonicotinamide], the figures for the pIC50 in test [1] and in test [2] were 8.69 and 7.97, respectively.

Regarding `Cc1ccc(NC(=O)c2ccnc(C(C)(C)C#N)c2)cc1-c1cnc(NC(C)C)c(C#N)c1` [Example 20, N-(3-(5-cyano-6-(isopropylamino)pyridin-3-yl)-4-methylphenyl)-2-(2-cyanopropan-2-yl)isonicotinamide], the negative logarithm of the IC50 (pIC50) is 9.33 in test [1] and 8.78 in test [2].

In the case of `CNc1ncc(-c2cc(NC(=O)c3cccc(C(F)(F)F)c3)ccc2C)cc1C#N` [Example 5, N-(3-(5-cyano-6-(methylamino)pyridin-3-yl)-4-methylphenyl)-3-(trifluoromethyl) benzamide], the pIC50 in test [1] is 9.74; in test [2], 8.88.

Turning to `Cc1ccc(NC(=O)c2cnnc(C(C)(C)C#N)c2)cc1-c1cnc(N2CC(C)(O)C2)c(C#N)c1` [Example 214, N-(3-(5-cyano-6-(3-hydroxy-3-methylazetidin-1-yl)pyridin-3-yl)-4-methylphenyl)-6-(2-cyanopropan-2-yl)pyridazine-4-carboxamide], the pIC50 in test [1] was 9.13; in test [2] it was 8.33.

Regarding `Cc1ncc(NC(=O)c2ccnc(C(C)C)c2)cc1-c1cnc(N2CCOCC2)c(C#N)c1` [Example 133, N-(5′-cyano-2-methyl-6′-morpholino-[3,3′-bipyridin]-5-yl)-2-isopropyl-isonicotinamide], the negative-log IC50 (pIC50) was 9.48 in test [1] and 8.69 in test [2].

For the molecule `CCNc1ncc(-c2cc(NC(=O)c3cccc(C(F)(F)F)c3)ccc2C)cc1C#N` [Example 23, N-(3-(5-cyano-6-(ethylamino)pyridin-3-yl)-4-methylphenyl)-3-(trifluoromethyl) benzamide], the negative logarithm of the IC50 (pIC50) in test [1] is 9.61; in test [2], 8.83.

On to `Cc1ncc(NC(=O)c2ccnc(C(C)(C)C#N)c2)cc1-c1cnc(NC(C)C)c(C#N)c1` [Example 28, N-(5′-cyano-6′-(isopropylamino)-2-methyl-[3,3′-bipyridin]-5-yl)-2-(2-cyanopropan-2-yl)isonicotinamide], for which the results for the pIC50 in test [1] and in test [2] were 8.59 and 8.01, respectively.

As for `Cc1ccc(NC(=O)c2ccnc(C(C)(C)C#N)c2)cc1-c1cnc(NC2CCOCC2)c(C#N)c1` [Example 60, N-(3-(5-cyano-6-((tetrahydro-2H-pyran-4-yl)amino)pyridin-3-yl)-4-methylphenyl)-2-(2-cyanopropan-2-yl)isonicotinamide], the pIC50 in test [1] was 9.44; in test [2] it was 8.96.

For `Cc1ccc(NC(=O)c2ccnc(C(F)(F)F)c2)cc1-c1cnc(N2CC(O)C2)c(C#N)c1` [Example 63, N-(3-(5-cyano-6-(3-hydroxyazetidin-1-yl)pyridin-3-yl)-4-methylphenyl)-2-(trifluoromethyl) isonicotinamide], the negative-log IC50 (pIC50) was 9.92 in test [1] and 9.31 in test [2].

As to `CCn1cc(C(=O)Nc2ccc(C)c(-c3cnc(N4CC(C)(O)C4)c(C#N)c3)c2)cc(C(F)(F)F)c1=O` [Example 221, N-(3-(5-cyano-6-(3-hydroxy-3-methylazetidin-1-yl)pyridin-yl)-4-methylphenyl)-1-ethyl-6-oxo-5-(trifluoromethyl)-1,6-dihydropyridine-3-carboxamide], the negative logarithm of the IC50 (pIC50) in test [1] is 9.23; in test [2], 8.44.
